System in one series: not given
Assay: not given
Conditions: human.
Turning to `CCn1nc(C(=O)O)c(=O)c2cc3c(cc21)OCO3` [Cinoxacin], the “reference log Vdss” value is given as -0.42.

Take `COC1=CC(=O)C[C@@H](C)[C@]12Oc1c(Cl)c(OC)cc(OC)c1C2=O` [Griseofulvin]: the “reference log Vdss” value was found to be 0.12.

For `Cc1ncc([N+](=O)[O-])n1CCO` [Metronidazole], the “reference log Vdss” value is reported as -0.25.

For `Nc1cc(N2CCCCC2)nc(N)[n+]1[O-]` [Minoxidil], the “reference log Vdss” value is -0.04.

`COc1ccc(NS(=O)(=O)c2ccc(N)cc2)nn1` [Sulfamethoxypyridazine]: the “reference log Vdss” value is -0.59.

Turning to `CC(C)(C)NC(=O)[C@H]1CC[C@H]2[C@@H]3CC[C@H]4NC(=O)C=C[C@]4(C)[C@H]3CC[C@]12C` [Finasteride], the “reference log Vdss” value came to 0.3.

`Nc1ccc(S(=O)(=O)Nc2ccc(Cl)nn2)cc1` [Sulfachlorpyridazine]: the “reference log Vdss” value is -0.76.

On to `C=CCOc1ccc(CC(=O)O)cc1Cl` [Alclofenac], for which the “reference log Vdss” value was -1.1.

For `NC(=O)N1c2ccccc2C=Cc2ccccc21` [Carbamazepine], the “reference log Vdss” value is reported as -0.09.

With `CN(C)CCCN1c2ccccc2Sc2ccc(Cl)cc21` [Chlorpromazine], the “reference log Vdss” value was determined as 2.15.

Take `CCN1CCCC1CNC(=O)c1cc(S(N)(=O)=O)ccc1OC` (centres unmarked) [Sulpiride]: the “reference log Vdss” value came to 0.12.

With `CC(O)Cn1cnc2c1c(=O)n(C)c(=O)n2C` (centres unmarked) [Proxyphylline], the “reference log Vdss” value is given as -0.85.

System in another series: not given
Assay: not given
Conditions: reference CHI (IAM), old columns; cited from earlier work.
In the case of `COC1=CC(=O)C[C@@H](C)[C@]12Oc1c(Cl)c(OC)cc(OC)c1C2=O` [Griseofulvin], the “CHI (IAM) from ref [13]” value is recorded as 33.10.

For `Cc1ncc([N+](=O)[O-])n1CCO` [Metronidazole], the “CHI (IAM) from ref [13]” value is reported as -3.30.

As for `Nc1cc(N2CCCCC2)nc(N)[n+]1[O-]` [Minoxidil], the “CHI (IAM) from ref [13]” value was 19.00.

As for `Nc1ccc(S(=O)(=O)Nc2ccc(Cl)nn2)cc1` [Sulfachlorpyridazine], the “CHI (IAM) from ref [13]” value is 6.00.

In the case of `C=CCOc1ccc(CC(=O)O)cc1Cl` [Alclofenac], the “CHI (IAM) from ref [13]” value is 17.80.

As to `NC(=O)N1c2ccccc2C=Cc2ccccc21` [Carbamazepine], the “CHI (IAM) from ref [13]” value was 26.50.

As for `CCN1CCCC1CNC(=O)c1cc(S(N)(=O)=O)ccc1OC` (centres unmarked) [Sulpiride], the “CHI (IAM) from ref [13]” value is 25.50.

The target of the next series is T1, human serum albumin (HSA) (Homo sapiens, UniProt P02768). As to the kind of experiment: Protein binding on chemically bonded HSA column (Chiralpak-HSA). Particulars: remeasured in this study, pH 7.4.
T1 sequence (P02768 25-609): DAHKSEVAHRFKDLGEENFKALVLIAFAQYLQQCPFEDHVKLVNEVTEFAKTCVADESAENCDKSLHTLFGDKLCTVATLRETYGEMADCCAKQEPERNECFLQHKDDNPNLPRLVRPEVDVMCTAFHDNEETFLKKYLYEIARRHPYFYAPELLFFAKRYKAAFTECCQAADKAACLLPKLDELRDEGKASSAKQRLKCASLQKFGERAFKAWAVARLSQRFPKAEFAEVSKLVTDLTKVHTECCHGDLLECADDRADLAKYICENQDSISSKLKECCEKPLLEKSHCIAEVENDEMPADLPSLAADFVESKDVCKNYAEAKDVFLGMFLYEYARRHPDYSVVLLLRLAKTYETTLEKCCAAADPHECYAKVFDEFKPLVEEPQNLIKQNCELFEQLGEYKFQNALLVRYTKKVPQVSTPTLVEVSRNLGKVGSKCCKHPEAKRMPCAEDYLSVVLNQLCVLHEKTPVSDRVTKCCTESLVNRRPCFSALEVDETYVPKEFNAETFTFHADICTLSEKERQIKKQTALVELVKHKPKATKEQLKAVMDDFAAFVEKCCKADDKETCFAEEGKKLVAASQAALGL
Description: Mobile phase A was 50 mM ammonium acetate adjusted to pH 7.4 and mobile phase B was 2-propanol. The flow rate was 1.5 mL/min and the run time was 6 min. The 2-propanol gradient was applied from 0 to 35% from 0 to 3.00 min and kept at 35% until 4.00 min.
Take `CCn1nc(C(=O)O)c(=O)c2cc3c(cc21)OCO3` [Cinoxacin]: the “log K HSA” value is given as 0.91.

For the compound `COC1=CC(=O)C[C@@H](C)[C@]12Oc1c(Cl)c(OC)cc(OC)c1C2=O` [Griseofulvin], the “log K HSA” value amounted to 0.80.

In the case of `Cc1ncc([N+](=O)[O-])n1CCO` [Metronidazole], the “log K HSA” value came to 0.72.

For the compound `Nc1cc(N2CCCCC2)nc(N)[n+]1[O-]` [Minoxidil], the “log K HSA” value is 3.41.

Regarding `COc1ccc(NS(=O)(=O)c2ccc(N)cc2)nn1` [Sulfamethoxypyridazine], the “log K HSA” value is 4.27.

Take `CC(C)(C)NC(=O)[C@H]1CC[C@H]2[C@@H]3CC[C@H]4NC(=O)C=C[C@]4(C)[C@H]3CC[C@]12C` [Finasteride]: the “log K HSA” value is 3.55.

With `Nc1ccc(S(=O)(=O)Nc2ccc(Cl)nn2)cc1` [Sulfachlorpyridazine], the “log K HSA” value turned out to be 2.20.

Consider `C=CCOc1ccc(CC(=O)O)cc1Cl` [Alclofenac], for which the “log K HSA” value worked out at 5.40.

For `NC(=O)N1c2ccccc2C=Cc2ccccc21` [Carbamazepine], the “log K HSA” value came to 1.81.

Take `CN(C)CCCN1c2ccccc2Sc2ccc(Cl)cc21` [Chlorpromazine]: the “log K HSA” value turned out to be 1.27.

As for `CC(O)Cn1cnc2c1c(=O)n(C)c(=O)n2C` (centres unmarked) [Proxyphylline], the “log K HSA” value was found to be 3.02.

System in a further series: not listed separately
The series can be described thus: IAM chromatography on new IAM.PC.DD2 columns (gradient HPLC, CHI (IAM)). Further details: key to CHI (IAM) “new” / P20511-014-3 CHI (IAM): CHI (IAM) from retention times calibrated to predefined CHI standards. Conditions: lower CHI (IAM) on new batches; outlier if difference greater than 7.2 CHI IAM units. It is filed as physicochemical. How it is done:
The IAM binding was measured using IAM.PC.DD2 HPLC columns (Regis Technologies, Inc., IL, USA) with dimensions of 100 x 4.6 mm, particle size 10 μm with 300 Å pore size.
Two batches of IAM.PC.DD2 columns were studied (R20511-014-3 and P20511-014-3) that had been prepared using the new batches of silica support.
The retention times were standardized using the IAM calibration mixture, containing octanophenone, heptanophenone, hexanophenone, valerophenone, butyrophenone, propiophenone, acetophenone, acetanilide and paracetamol. The retention times of the compounds were plotted against the isocratically determined and predefined CHI (IAM) values listed in Table 1. The slope and intercept of the obtained straight line was used to calculate the CHI IAM values of new compounds.
For the compound `CCN1CCCC1CNC(=O)c1cc(S(N)(=O)=O)ccc1OC` (centres unmarked) [Sulpiride], the “outlier in correlation of reference CHI (IAM) with CHI (IAM) on column R20511-014-3” value is “outliers”.

The same series, now with this note: new IAM.PC.DD2 column batch P20511-014-3, pH 7.4.
As to `CCn1nc(C(=O)O)c(=O)c2cc3c(cc21)OCO3` [Cinoxacin], the “P20511-014-3 CHI (IAM)” value is 6.67.

As for `COC1=CC(=O)C[C@@H](C)[C@]12Oc1c(Cl)c(OC)cc(OC)c1C2=O` [Griseofulvin], the “P20511-014-3 CHI (IAM)” value worked out at 30.98.

In the case of `Cc1ncc([N+](=O)[O-])n1CCO` [Metronidazole], the “P20511-014-3 CHI (IAM)” value was -3.24.

For the compound `Nc1cc(N2CCCCC2)nc(N)[n+]1[O-]` [Minoxidil], the “P20511-014-3 CHI (IAM)” value amounted to 16.08.

Consider `COc1ccc(NS(=O)(=O)c2ccc(N)cc2)nn1` [Sulfamethoxypyridazine], for which the “P20511-014-3 CHI (IAM)” value turned out to be 11.16.

Consider `CC(C)(C)NC(=O)[C@H]1CC[C@H]2[C@@H]3CC[C@H]4NC(=O)C=C[C@]4(C)[C@H]3CC[C@]12C` [Finasteride], for which the “P20511-014-3 CHI (IAM)” value was determined as 37.17.

As to `Nc1ccc(S(=O)(=O)Nc2ccc(Cl)nn2)cc1` [Sulfachlorpyridazine], the “P20511-014-3 CHI (IAM)” value was found to be 10.83.

For `C=CCOc1ccc(CC(=O)O)cc1Cl` [Alclofenac], the “P20511-014-3 CHI (IAM)” value was 21.63.

On to `NC(=O)N1c2ccccc2C=Cc2ccccc21` [Carbamazepine], for which the “P20511-014-3 CHI (IAM)” value was 27.07.

With `CN(C)CCCN1c2ccccc2Sc2ccc(Cl)cc21` [Chlorpromazine], the “P20511-014-3 CHI (IAM)” value worked out at 50.94.

Take `CCN1CCCC1CNC(=O)c1cc(S(N)(=O)=O)ccc1OC` (centres unmarked) [Sulpiride]: the “P20511-014-3 CHI (IAM)” value is reported as 16.15.

On to `CC(O)Cn1cnc2c1c(=O)n(C)c(=O)n2C` (centres unmarked) [Proxyphylline], for which the “P20511-014-3 CHI (IAM)” value was 10.89.

The series is the same for the next values; noted with them: new IAM.PC.DD2 column batch R20511-014-3, pH 7.4.
`CCn1nc(C(=O)O)c(=O)c2cc3c(cc21)OCO3` [Cinoxacin]: the “R20511-014-3 CHI (IAM)” value is 5.31.

Consider `COC1=CC(=O)C[C@@H](C)[C@]12Oc1c(Cl)c(OC)cc(OC)c1C2=O` [Griseofulvin], for which the “R20511-014-3 CHI (IAM)” value worked out at 31.06.

On to `Cc1ncc([N+](=O)[O-])n1CCO` [Metronidazole], for which the “R20511-014-3 CHI (IAM)” value was -2.71.

Consider `Nc1cc(N2CCCCC2)nc(N)[n+]1[O-]` [Minoxidil], for which the “R20511-014-3 CHI (IAM)” value is on record as 15.93.

Regarding `COc1ccc(NS(=O)(=O)c2ccc(N)cc2)nn1` [Sulfamethoxypyridazine], the “R20511-014-3 CHI (IAM)” value is listed as 11.11.

With `CC(C)(C)NC(=O)[C@H]1CC[C@H]2[C@@H]3CC[C@H]4NC(=O)C=C[C@]4(C)[C@H]3CC[C@]12C` [Finasteride], the “R20511-014-3 CHI (IAM)” value is given as 37.15.

Turning to `Nc1ccc(S(=O)(=O)Nc2ccc(Cl)nn2)cc1` [Sulfachlorpyridazine], the “R20511-014-3 CHI (IAM)” value was 10.08.

On to `C=CCOc1ccc(CC(=O)O)cc1Cl` [Alclofenac], for which the “R20511-014-3 CHI (IAM)” value came to 20.47.

Regarding `NC(=O)N1c2ccccc2C=Cc2ccccc21` [Carbamazepine], the “R20511-014-3 CHI (IAM)” value was determined as 27.18.

`CN(C)CCCN1c2ccccc2Sc2ccc(Cl)cc21` [Chlorpromazine]: the “R20511-014-3 CHI (IAM)” value amounted to 51.54.

In the case of `CCN1CCCC1CNC(=O)c1cc(S(N)(=O)=O)ccc1OC` (centres unmarked) [Sulpiride], the “R20511-014-3 CHI (IAM)” value was found to be 15.80.

For the compound `CC(O)Cn1cnc2c1c(=O)n(C)c(=O)n2C` (centres unmarked) [Proxyphylline], the “R20511-014-3 CHI (IAM)” value is reported as 10.05.

The same series, now with this note: system suitability test compounds.
Consider `NC(=O)N1c2ccccc2C=Cc2ccccc21` [Carbamazepine], for which the “CHI (IAM) deviation between reference and new IAM.PC.DD2 columns” value is “very similar”.

For the compound `CN(C)CCCN1c2ccccc2Sc2ccc(Cl)cc21` [Chlorpromazine], the “CHI (IAM) deviation between reference and new IAM.PC.DD2 columns” value was > 5 CHI (IAM) unit.

The same series, now with this note: system suitability test compounds, new IAM.PC.DD2 columns, pH 7.4.
Regarding `NC(=O)N1c2ccccc2C=Cc2ccccc21` [Carbamazepine], the “CHI (IAM) “new”” value is given as 27.0.

Take `CN(C)CCCN1c2ccccc2Sc2ccc(Cl)cc21` [Chlorpromazine]: the “CHI (IAM) “new”” value is 54.0.

A further series concerns the target T1, human serum albumin (HSA).
Assay: not given
Conditions: cited from earlier work.
For `CCn1nc(C(=O)O)c(=O)c2cc3c(cc21)OCO3` [Cinoxacin], the “log K HSA from ref [13]” value was 0.79.

For the compound `COC1=CC(=O)C[C@@H](C)[C@]12Oc1c(Cl)c(OC)cc(OC)c1C2=O` [Griseofulvin], the “log K HSA from ref [13]” value is 0.77.

As to `Cc1ncc([N+](=O)[O-])n1CCO` [Metronidazole], the “log K HSA from ref [13]” value is recorded as 0.66.

Take `Nc1cc(N2CCCCC2)nc(N)[n+]1[O-]` [Minoxidil]: the “log K HSA from ref [13]” value was 3.16.

For the compound `COc1ccc(NS(=O)(=O)c2ccc(N)cc2)nn1` [Sulfamethoxypyridazine], the “log K HSA from ref [13]” value is given as 2.33.

As to `CC(C)(C)NC(=O)[C@H]1CC[C@H]2[C@@H]3CC[C@H]4NC(=O)C=C[C@]4(C)[C@H]3CC[C@]12C` [Finasteride], the “log K HSA from ref [13]” value is 3.62.

As to `Nc1ccc(S(=O)(=O)Nc2ccc(Cl)nn2)cc1` [Sulfachlorpyridazine], the “log K HSA from ref [13]” value was 2.04.

Regarding `C=CCOc1ccc(CC(=O)O)cc1Cl` [Alclofenac], the “log K HSA from ref [13]” value was 5.11.

Regarding `NC(=O)N1c2ccccc2C=Cc2ccccc21` [Carbamazepine], the “log K HSA from ref [13]” value was 1.99.

In the case of `CN(C)CCCN1c2ccccc2Sc2ccc(Cl)cc21` [Chlorpromazine], the “log K HSA from ref [13]” value is given as 1.18.

With `CCN1CCCC1CNC(=O)c1cc(S(N)(=O)=O)ccc1OC` (centres unmarked) [Sulpiride], the “log K HSA from ref [13]” value was 4.84.

With `CC(O)Cn1cnc2c1c(=O)n(C)c(=O)n2C` (centres unmarked) [Proxyphylline], the “log K HSA from ref [13]” value is listed as 1.97.

Values taken from paper PMC8915595, “Revisiting the application of Immobilized Artificial Membrane (IAM) chromatography to estimate in vivo distribution properties of drug discovery compounds based on the model of marketed drugs” (ADMET & DMPK, 2020).
